Experimental data published in EP0052361A1, “Novel 16-membered macrolide compounds” (SANRAKU-OCEAN CO., LTD., priority 1980, dated 1982).
Converted amounts (≈) assume the structure as drawn.

What was measured:
Experiment in all cases: MIC by tube dilution method in brain heart infusion broth
Format in all cases: cell-based
[1] = system: Staphylococcus aureus 209P; conditions: Staphylococcus aureus, 209P, pH 7.5, read-out: Antimicrobial activity (MIC) Staphylococcus aureus 209P
Procedure: (§1) The minimum growth inhibitory concentrations (MIC) of the compounds (I) against various microorganisms were measured by a tube dilution method in a brain heart infusion broth (pH 7.5) as a medium.

[2] = system: Staphylococcus aureus MS9861; conditions: MS9861, pH 7.5, read-out: Antimicrobial activity (MIC) Staphylococcus aureus MS9861
Procedure: as §1

[3] = system: Bacillus subtilis NRRL B-558; conditions: Bacillus subtilis, NRRLB558, pH 7.5, read-out: Antimicrobial activity (MIC) Bacillus subtilis NRRL B558
Procedure: as §1

[4] = system: Klebsiella pneumoniae PCI602; conditions: Klebsiella pneumoniae, PCI602, pH 7.5, read-out: Antimicrobial activity (MIC) Klebsiella pneumonae PCI602
Procedure: as §1

| Compound | MIC [1] [µg/mL] | MIC [2] [µg/mL] | MIC [3] [µg/mL] | MIC [4] [µg/mL] |
| --- | --- | --- | --- | --- |
| CCC1OC(=O)CC(O)C(C)C(OC2OC(C)C(OC3CC(C)(O)C(OC(=O)CSc4ccncc4)C(C)O3)C(N(C)C)C2O)C(CC=O)CC(C)C(=O)C=CC(C)=CC1C (stereo not drawn) | < 0.2 | 1.6 (≈ 1.82 µM) | < 0.2 | 3.1 (≈ 3.53 µM) |
| CCC1OC(=O)CC(O)C(C)C(OC2OC(C)C(OC3CC(C)(OC(C)=O)C(OC(=O)CSc4ccncc4)C(C)O3)C(N(C)C)C2O)C(CC=O)CC(C)C(=O)C=CC(C)=CC1C (stereo not drawn) | < 0.2 | 0.8 (≈ 0.87 µM) | < 0.2 | 6.3 (≈ 6.85 µM) |
| CCC1OC(=O)CC(O)C(C)C(OC2OC(C)C(OC3CC(C)(O)C(OC(=O)C4CCCCC4)C(C)O3)C(N(C)C)C2O)C(CC=O)CC(C)C(=O)/C=C/C(C)=C/C1C (stereo not drawn) | 0.8 (≈ 0.957 µM) | 3.1 (≈ 3.71 µM) | 0.2 (≈ 0.239 µM) | 12.5 (≈ 15 µM) |
| CCC1OC(=O)CC(O)C(C)C(OC2OC(C)C(OC3CC(C)(O)C(OC(=O)C(O)c4ccccc4)C(C)O3)C(N(C)C)C2O)C(CC=O)CC(C)C(=O)C=CC(C)=CC1C (stereo not drawn) | < 0.2 | 1.6 (≈ 1.86 µM) | 1.6 (≈ 1.86 µM) | 3.1 (≈ 3.6 µM) |
| CCC1OC(=O)CC(O)C(C)C(OC2OC(C)C(OC3CC(C)(O)C(OC(=O)Cc4cccnc4)C(C)O3)C(N(C)C)C2O)C(CC=O)CC(C)C(=O)C=CC(C)=CC1C (stereo not drawn) | < 0.2 | 0.8 (≈ 0.947 µM) | < 0.2 | 1.6 (≈ 1.89 µM) |
| CCC1OC(=O)CC(O)C(C)C(OC2OC(C)C(OC3CC(C)(O)C(OS(=O)(=O)c4ccc(C)cc4)C(C)O3)C(N(C)C)C2O)C(CC=O)CC(C)C(=O)/C=C/C(C)=C/C1C (stereo not drawn) | < 0.2 | 6.3 (≈ 7.16 µM) | 0.4 (≈ 0.454 µM) | 3.1 (≈ 3.52 µM) |
| CCC1OC(=O)CC(O)C(C)C(OC2OC(C)C(OC3CC(C)(O)C(OC(=O)Nc4ccccc4)C(C)O3)C(N(C)C)C2O)C(CC=O)CC(C)C(=O)/C=C/C(C)=C/C1C (stereo not drawn) | 0.8 (≈ 0.947 µM) | 3.1 (≈ 3.67 µM) | 0.8 (≈ 0.947 µM) | 6.3 (≈ 7.46 µM) |
| CCC1OC(=O)CC(O)C(C)C(OC2OC(C)C(OC3CC(C)(O)C(OC(=O)Cc4cccs4)C(C)O3)C(N(C)C)C2O)C(CC=O)CC(C)C(=O)C=CC(C)=CC1C (stereo not drawn) | 0.2 (≈ 0.235 µM) | 1.6 (≈ 1.88 µM) | 0.4 (≈ 0.471 µM) | 3.1 (≈ 3.65 µM) |
| CCC1OC(=O)CC(O)C(C)C(OC2OC(C)C(OC3CC(C)(O)C(OC(=O)CC(C)C)C(C)O3)C(N(C)C)C2O)C(CC=O)CC(C)C(=O)C=CC(C)=CC1C (stereo not drawn) [R1=H; R2=H; YR3=COCH2CH(CH3)2, 4"-isovaleryl YT-3927] | 0.4 (≈ 0.494 µM) | 1.6 (≈ 1.98 µM) | 0.4 (≈ 0.494 µM) | 6.3 (≈ 7.78 µM) |
